Results reported in ChEMBL document CHEMBL1145374, “Discovery of para-alkylthiophenoxyacetic acids as a novel series of potent and selective PPARdelta agonists” (Bioorg Med Chem Lett, 2007).

Key:
[1] = target: T1, Peroxisome proliferator-activated receptor gamma (Homo sapiens, UniProt P37231); experiment: Activity at human PPARgamma receptor by cell based transactivation assay
T1 sequence (P37231 whole entry): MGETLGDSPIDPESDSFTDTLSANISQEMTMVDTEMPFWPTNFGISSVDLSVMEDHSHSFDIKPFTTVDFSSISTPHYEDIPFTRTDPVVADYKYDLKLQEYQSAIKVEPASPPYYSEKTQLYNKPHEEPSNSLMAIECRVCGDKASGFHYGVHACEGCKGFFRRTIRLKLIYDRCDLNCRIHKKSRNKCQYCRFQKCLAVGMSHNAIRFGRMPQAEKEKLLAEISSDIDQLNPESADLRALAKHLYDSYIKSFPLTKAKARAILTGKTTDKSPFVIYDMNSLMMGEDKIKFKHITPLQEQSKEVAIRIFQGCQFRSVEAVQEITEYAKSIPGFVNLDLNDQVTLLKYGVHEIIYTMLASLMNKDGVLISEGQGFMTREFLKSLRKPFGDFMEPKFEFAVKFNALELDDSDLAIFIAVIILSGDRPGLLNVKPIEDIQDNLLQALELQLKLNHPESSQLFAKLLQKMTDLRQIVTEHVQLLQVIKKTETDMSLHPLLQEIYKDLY

[2] = target: T2, Peroxisome proliferator-activated receptor delta (Homo sapiens, UniProt Q03181); experiment: Agonist activity at human PPARdelta receptor by cell based transactivation assay; format: functional
T2 sequence (Q03181 whole entry): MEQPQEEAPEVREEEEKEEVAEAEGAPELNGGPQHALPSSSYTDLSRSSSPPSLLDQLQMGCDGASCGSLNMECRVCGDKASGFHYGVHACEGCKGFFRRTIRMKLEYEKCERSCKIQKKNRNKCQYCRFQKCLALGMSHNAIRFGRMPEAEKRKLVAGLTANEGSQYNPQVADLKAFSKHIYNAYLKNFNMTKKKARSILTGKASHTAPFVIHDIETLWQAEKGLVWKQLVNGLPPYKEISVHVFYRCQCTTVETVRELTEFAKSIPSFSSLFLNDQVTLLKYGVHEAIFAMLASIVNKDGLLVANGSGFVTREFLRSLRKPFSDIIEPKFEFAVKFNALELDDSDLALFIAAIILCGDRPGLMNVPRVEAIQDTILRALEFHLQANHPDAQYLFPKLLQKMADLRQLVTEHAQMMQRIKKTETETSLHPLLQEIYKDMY

[3] = target: T3, Peroxisome proliferator-activated receptor alpha (Homo sapiens, UniProt Q07869); experiment: Activity at human PPARalpha receptor by cell based transactivation assay
T3 sequence (Q07869 whole entry): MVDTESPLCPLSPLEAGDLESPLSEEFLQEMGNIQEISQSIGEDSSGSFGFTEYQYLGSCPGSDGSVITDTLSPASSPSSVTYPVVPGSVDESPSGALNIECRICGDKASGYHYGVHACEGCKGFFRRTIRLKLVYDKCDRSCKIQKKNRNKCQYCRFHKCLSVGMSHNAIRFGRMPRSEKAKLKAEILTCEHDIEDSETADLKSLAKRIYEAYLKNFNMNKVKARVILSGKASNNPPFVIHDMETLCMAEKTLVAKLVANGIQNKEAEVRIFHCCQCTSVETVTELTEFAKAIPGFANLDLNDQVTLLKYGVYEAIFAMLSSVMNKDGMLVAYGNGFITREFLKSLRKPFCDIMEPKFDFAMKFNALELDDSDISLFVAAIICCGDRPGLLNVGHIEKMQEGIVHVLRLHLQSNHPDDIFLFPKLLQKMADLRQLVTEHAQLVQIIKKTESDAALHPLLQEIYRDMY

[4] = Oral bioavailability in rat; format: ADME, organism-based; settings: in vivo
[5] = Tmax in rat; format: ADME, organism-based; settings: in vivo
[6] = Cmax in rat; format: ADME, organism-based; settings: in vivo
[7] = Half life in rat; format: ADME, organism-based; settings: in vivo
[8] = AUC in rat; format: ADME, organism-based; settings: plasma

SMILES | EC50 [1] [nM] | EC50 [2] [nM] | EC50 [3] [nM] | further results
CCC(COc1ccc(C(F)(F)F)cc1)CSc1ccc(OCC(=O)O)c(C)c1 (stereo not given) | > 1000 | 0.06 | > 1000 | 
CCO[C@H](COc1ccc(C(F)(F)F)cc1)CSc1ccc(OCC(=O)O)c(C)c1 | > 1000 | 1.9 | > 1000 | 
CCOC(COc1ccc(C(F)(F)F)cc1)COc1ccc(OCC(=O)O)c(C)c1 (stereo not given) | > 1000 |  | > 1000 | 
CCCCOC(COc1ccc(C(F)(F)F)cc1)CSc1ccc(OCC(=O)O)c(C)c1 (stereo not given) | > 1000 | 7 | > 1000 | 
C=CCOC(COc1ccc(C(F)(F)F)cc1)CSc1ccc(OCC(=O)O)c(C)c1 (stereo not given) | > 1000 | 3.9 | > 1000 | 
CCO[C@H](COc1ccc(C(F)(F)F)cc1)C[S+]([O-])c1ccc(OCC(=O)O)c(C)c1 (stereo not given in full) | > 1000 | > 3000 | > 1000 | 
COC(COc1ccc(C(F)(F)F)cc1)CSc1ccc(OCC(=O)O)c(C)c1 (stereo not given) | > 1000 | 18.8 | > 1000 | 
Cc1cc(SCC(COc2ccc(C(F)(F)F)cc2)OCc2ccccc2)ccc1OCC(=O)O (stereo not given) | > 1000 |  | > 1000 | 
CCCC(=O)c1ccc(OC(COc2ccc(C(F)(F)F)cc2)CSc2ccc(OCC(=O)O)c(C)c2)cc1 (stereo not given) | > 1000 |  | > 1000 | 
Cc1cc(SCC(COc2ccc(C(F)(F)F)cc2)COc2ccc(C(F)(F)F)cc2)ccc1OCC(=O)O | > 1000 |  | > 1000 | 
Cc1cc(SCC(C)COc2ccc(C(F)(F)F)cc2)ccc1OCC(=O)O (stereo not given) | > 1000 | 7.4 | > 1000 | 
CSCOC(CCc1ccc(C(F)(F)F)cc1)CSc1ccc(OCC(=O)O)c(C)c1 (stereo not given) | > 1000 | 15.2 | > 1000 | 
COCOC(COc1ccc(C(F)(F)F)cc1)CSc1ccc(OCC(=O)O)c(C)c1 (stereo not given) | > 1000 |  | > 1000 | 
Cc1cc(SCC(COc2ccc(C(F)(F)F)cc2)OCC(=O)O)ccc1OCC(=O)O (stereo not given) | > 1000 |  | > 1000 | 
COc1ccc(OC(COc2ccc(C(F)(F)F)cc2)CSc2ccc(OCC(=O)O)c(C)c2)cc1 (stereo not given) | > 1000 |  | > 1000 | 

Continued, in another order:

EC50 [1] [nM] | EC50 [2] [nM] | EC50 [3] [nM] | SMILES | further results
> 1000 | 3.4 | > 1000 | CCOC(COc1ccc(C(F)(F)F)cc1)CSc1ccc(OCC(=O)O)c(C)c1 (stereo not given) | 
> 1000 |  | > 1000 | CCOC(CCc1ccc(C(F)(F)F)cc1)CSc1ccc(OCC(=O)O)c(C)c1 (stereo not given) | 
> 1000 |  | > 1000 | COCO[C@H](COc1ccc(C(F)(F)F)cc1)CSc1ccc(OCC(=O)O)c(C)c1 | 
> 1000 | 70 | > 1000 | COCO[C@@H](COc1ccc(C(F)(F)F)cc1)CSc1ccc(OCC(=O)O)c(C)c1 | 
> 1000 |  | > 1000 | CCOCC(COc1ccc(C(F)(F)F)cc1)CSc1ccc(OCC(=O)O)c(C)c1 (stereo not given) | 
> 1000 | 25 | > 1000 | CCO[C@@H](COc1ccc(C(F)(F)F)cc1)CSc1ccc(OCC(=O)O)c(C)c1 | 
> 1000 |  | > 1000 | CCCOC(COc1ccc(C(F)(F)F)cc1)CSc1ccc(OCC(=O)O)c(C)c1 (stereo not given) | 
> 1000 | 0.03 | > 1000 | CC[C@H](COc1ccc(C(F)(F)F)cc1)CSc1ccc(OCC(=O)O)c(C)c1 | bioavailability [4]: 84%; Tmax [5]: 0.5 h; Cmax [6]: 8870 ng/mL; half-life [7]: 8.2 h; AUC [8]: 13600 ng·h/mL
> 1000 |  | > 1000 | Cc1cc(SCC(O)COc2ccc(C(F)(F)F)cc2)ccc1OCC(=O)O (stereo not given) | 
